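Values below derive from 48-hour exposures of cells grown in 96-well plates, with endpoints linearly interpolated between the two concentrations bracketing the appropriate inhibition level. Definition used: TGI = concentration required for complete inhibition of growth.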
Experiments:
Test in all cases: DTP human tumour cell line panel, 48 h
[1] = system: 786-0 renal
[2] = system: A498 renal
[3] = system: A549 NSCLC
[4] = system: ACHN renal
[5] = system: BT-549 breast
[6] = system: CAKI-1 renal
[7] = system: CCRF-CEM leukemia
[8] = system: COLO 205 colon
[9] = system: EKVX NSCLC
[10] = system: HCT-116 colon
[11] = system: HCT-15 colon
[12] = system: HL-60(TB) leukemia
[13] = system: HOP-62 NSCLC
[14] = system: HOP-92 NSCLC
[15] = system: HS 578T breast
[16] = system: HT29 colon
[17] = system: IGROV1 ovarian
[18] = system: K-562 leukemia
[19] = system: KM12 colon
[20] = system: LOX IMVI melanoma
[21] = system: M14 melanoma
[22] = system: MALME-3M melanoma
[23] = system: MCF7 breast
[24] = system: MDA-MB-231 breast
[25] = system: MDA-MB-435
[26] = system: MDA-N
[27] = system: MOLT-4 leukemia
[28] = system: NCI-H226 lung
[29] = system: NCI-H23 lung
[30] = system: NCI-H460 lung
[31] = system: NCI-H522 lung
[32] = system: NCI/ADR-RES ovarian
[33] = system: OVCAR-3 ovarian
[34] = system: OVCAR-4 ovarian
[35] = system: OVCAR-5 ovarian
[36] = system: OVCAR-8 ovarian
[37] = system: PC-3 prostate
[38] = system: RPMI-8226 leukemia
[39] = system: RXF 393 renal
[40] = system: SF-268 CNS
[41] = system: SF-295 CNS
[42] = system: SF-539 CNS
[43] = system: SK-MEL-2 melanoma
[44] = system: SK-MEL-28 melanoma
[45] = system: SK-MEL-5 melanoma
[46] = system: SK-OV-3 ovarian
[47] = system: SN12C renal
[48] = system: SNB-19 CNS
[49] = system: SR leukemia
[50] = system: SW-620 colon
[51] = system: T-47D breast
[52] = system: TK-10 renal
[53] = system: U251 CNS
[54] = system: UACC-257 melanoma
[55] = system: UACC-62 melanoma
[56] = system: UO-31 renal
[57] = system: DU-145 prostate
[58] = system: HCC-2998 colon
[59] = system: SNB-75 CNS

Measured: TGI

O=C1c2ccccc2C(=O)N1CC1(C(=O)O)NCCS1(=O)=O (stereo unspecified)
not listed: [57] | [58] | [59]
> 100 µM: all other assays above

CC1=C(C(=O)Nc2cccc3c2C(=O)NC3=O)CC(C(=O)Nc2cccc3c2C(=O)NC3=O)=C(C)N1
not listed: [16] | [28] | [32] | [36]
> 100 µM: all other assays above
